US10206955B2, “Compositions of ascorbic acid and bone morphogenetic protein 4 (BMP-4) for cell growth and uses related thereo” (EMORY UNIVERSITY, priority 2014, dated 2019)

How the values were obtained:
aMHC-GFP-MTTFs = experiment: Quantification of GFP+ cells in aMHC-GFP reporter MTTFs; type: cell-based, mouse; details: for GFP expression (aMHC-GFP): agent alone
Description: (§1) To enhance the reprogramming potential of miRNAs, AA and BMP4 were added one day after miR-transfection (FIG. 1A). Between 4-6 days, spontaneously contracting cells appeared in groups treated with […], miR-208b-3p, or miR-499-5p, but not with miR-208a-3p and miR-208b-5p or all miRNA. The latter groups were excluded from further experiments. To further confirm the results, MTTFs were isolated from aMHC-GFP reporter mice (aMHC-GFP-MTTFs) and quantified GFP+ cells after treating with […], miR-208b-3p, or miR-499-5p in combination with AA and BMP4. […] TNNT2+ cells occupied 1.8±0.6% of MTTFs treated with miR-208b-3p, AA and BMP4 by flow cytometry analyses. This reprogramming rate is smaller than the number of aMHC-GFP+ cells because TNNT2 is a more specific and mature marker for CMs.
(§2) Mouse tail-tip fibroblasts (MTTFs) isolated from 1-4 month old transgenic mice carrying a GFP reporter driven by αMHC or human ubiquitin C (UBC) promoters were cultured in DMEM/F-12 (Invitrogen) containing 10% FBS (Atlanta Biologicals), 1% Glutamax (Invitrogen), 1% non-essential amino acids (Invitrogen) and 1% Antibiotic-Antimycotic (Invitrogen). αMHC-GFP transgenic mice were kindly given by Dr. Mark Sussman (San Diego State University) and UBC-GFP mice (C57BL/6-Tg(UBC-GFP)30Scha/J) were purchased from the Jackson Laboratory. After 3-5 passages, MTTFs were frozen until use. […]

[1] = system: mouse tail-tip fibroblasts (MTTFs); experiment: Spontaneous contraction of miRNA-transfected MTTFs after adding AA and BMP4; type: cell-based; details: AA and BMP4 added one day after miR-transfection; between 4-6 days
Description: as §1
(§3) Mouse tail-tip fibroblasts (MTTFs) isolated from 1-4 month old transgenic mice carrying a GFP reporter driven by αMHC or human ubiquitin C (UBC) promoters were cultured in DMEM/F-12 (Invitrogen) containing 10% FBS (Atlanta Biologicals), 1% Glutamax (Invitrogen), 1% non-essential amino acids (Invitrogen) and 1% Antibiotic-Antimycotic (Invitrogen). αMHC-GFP transgenic mice were kindly given by Dr. Mark Sussman (San Diego State University) and UBC-GFP mice (C57BL/6-Tg(UBC-GFP)30Scha/J) were purchased from the Jackson Laboratory. After 3-5 passages, MTTFs were frozen until use. MTTFs at 70-80% of confluence were transfected with a synthetic miRNA mimic (20 nM), miR-1a-2-5p (Qiagen, MSY0017047, 5′-[…]-3′)(SEQ ID NO: 135), miR-208a-3p (Qiagen, MSY0000520, 5′-[…]-3′)(SEQ ID NO: 136), miR-208b-3p (Qiagen, MSY0004939, 5′-[…]-3′)(SEQ ID NO: 1), miR-208b-5p (Qiagen, MSY0017280, 5′-[…]-3′)(SEQ ID NO: 137), miR-499-5p (Qiagen, MSY0003482, 5′-[…]-3′) (SEQ ID NO: 3) or Scramble-miR (Dharmacon, CN-001000-01-05) using Lipofectamine 2000 (Invitrogen), and cultured in advanced DMEM/F12 (Invitrogen) containing 5% FBS (Atlanta Biologicals), 0.5% Glutamax (Invitrogen), 0.5% non-essential amino acids and 1% Antibiotic-Antimycotic (Invitrogen) with or without AA (ascorbic acid, Sigma, 0.2 mM) and BMP4 (R&D Systems, 10 ng/ml) for fibroblast reprogramming. Cells on a culture dish spontaneously aggregated as a patch-like CMT on day 10. In the case of no spontaneous formation, the border of a culture dish was scratched and cells were lifted up with a pipette to expedite cell aggregation into a CMT.

Myh6 = experiment: mRNA expression of Myh6 (aMHC) in treated MTTFs; type: cell-based, mouse; details: miRNA with AA and BMP4
Description: as §1, §2

[2] = system: mouse tail-tip fibroblasts (MTTFs); experiment: qRT-PCR of lineage markers at day 6 (vascular-lineage reprogramming); type: cell-based; details: protocol with AA and BMP4
Description: as §3, with “Cells on a culture dish spontaneously aggregated as a patch-like CMT on day 10. In the case of no spontaneous formation, the border of a culture dish was scratched and cells were lifted up with a pipette to expedite cell aggregation into a CMT.” left out

[3] = system: mouse tail-tip fibroblasts (MTTFs); experiment: Reprogramming of MTTFs with miRNA mimics alone: CM gene expression, ACTN2 immunocytochemistry; type: cell-based; details: miRNA mimic alone, without AA and BMP4
Text: The reprogramming potential of muscle-specific miRNA mimics, miR-1a-2-5p, miR-208a-3p, miR-208b-3p, miR-208b-5p, and miR-499-5p was investigated in mouse tail-tip fibroblasts (MTTFs). […] Immunocytochemistry confirmed expression of a CM marker sarcomeric α-actinin (ACTN2) in single miRNA transfected cells. However ACTN2 expression was diffuse, sarcomeric organization was poor and spontaneously contracting cells were not observed in any miRNA transfected MTTFs.
as §2

Molecule: O=C1O[C@H]([C@@H](O)CO)C(O)=C1O [AA, (R)-5-((S)-1,2-dihydroxyethyl)-3,4-dihydroxyfuran-2(5H)-one, reference compound]
- GFP expression (aMHC-GFP) (aMHC-GFP-MTTFs): did not induce GFP expression

Molecule: miR-1a-2-5p: synthetic miRNA mimic, Qiagen MSY0017047, 5′-ACAUACUUCUUUAUGUAGUACCCAUA-3′ (SEQ ID NO: 135) (chemistry not given here)
- spontaneously contracting cells [1]: appeared
- mRNA expression of Myh6 (Myh6): increased trend

Molecule: miR-208a-3p: synthetic miRNA mimic, Qiagen MSY0000520, 5′-AUAAGACGAGCAAAAAGCUUGU-3′ (SEQ ID NO: 136) (chemistry not given here)
- spontaneously contracting cells [1]: not

Molecule: miR-208b-3p: synthetic miRNA mimic, Qiagen MSY0004939, 5′-AUAAGACGAACAAAAGGUUUGU-3′ (SEQ ID NO: 1) (listed as RNA, chemistry not given here; listed as Mus musculus)
- spontaneously contracting cells [1]: appeared
- mRNA expression of Myh6 (Myh6): significantly increased
- expression of EC and SMC genes (qRT-PCR) [2]: increased expression
- expression of CM genes Mef2c, Nkx2-5, Gata4 and Myh6 [3]: most effective
- GFP expression (aMHC-GFP-positive cells) of MTTFs (aMHC-GFP-MTTFs; miRNA in combination with AA and BMP4): 22.0±2.6%

Molecule: miR-208b-5p: synthetic miRNA mimic, Qiagen MSY0017280, 5′-AAGCUUUUUGCUCGCGUUAUGU-3′ (SEQ ID NO: 137) (chemistry not given here)
- spontaneously contracting cells [1]: not

Molecule: miR-499-5p: synthetic miRNA mimic, Qiagen MSY0003482, 5′-UUAAGACUUGCAGUGAUGUUU-3′ (SEQ ID NO: 3) (listed as RNA, chemistry not given here; listed as Mus musculus)
- spontaneously contracting cells [1]: appeared

B1: BMP4: secreted disulfide-linked homodimeric BMP-4, a TGF-beta superfamily ligand (R&D Systems) (protein, listed as Homo sapiens)
chain: SPKHHPQRSRKKNKNCRRHSLYVDFSDVGWNDWIVAPPGYQAFYCHGDCPFPLADHLNSTNHAIVQTLVNSVNSSIPKACCVPTELSAISMLYLDEYDKVVLKNYQEMVVEGCGCR
modifications: homodimer
- GFP expression (aMHC-GFP) (aMHC-GFP-MTTFs): did not induce GFP expression
